From patent US20210052566A1, “METHODS FOR TREATING HEPATITIS B VIRUS (HBV) INFECTION” (INSERM (INSTITUT NATIONAL DE LA SANTÉ ET DE LA RECHERCHE …, priority 2018, published 2021)

How the values were obtained:
HBV genotype D = experiment: Anti-HBV properties in persistently infected dHepaRG cells, genotype D (post-infection treatment); format: cell-based, Hepatitis B virus; settings: treated three times with 10 microM
Method: (§1) FIG. 1. Experimental outlines. Treatment schemes: (a) Treatments in pre-infection: dHepaRG cells were treated for 24 h (at day −1) with 100 nM of PreS1 peptide (PreS1-pep) or 10 μM of 1C8, or untreated (NT). At day 0, cells were inoculated with HBV (MOI=250) or with HDV (MOI=25) in the presence of drugs for 24 h. For the tenofovir control (TDF at 10 μM), cells were treated at day 1 and 4 post-infection. Supernatant and cells were harvested at day 7 post-infection. (b) Treatments in post-infection: dHepaRG cells were inoculated with HBV (MOI=250) or with HDV (MOI=25). At days 4, 7 and 9 post infection, cells were treated with TDF 10 μM, lamivudine (3TC) at 10 μM, 1C8 10 μM or untreated (NT). Supernatant and cells were harvested at day 11 postinfection.
FIG. 5. Anti-HBV properties of 1C8 in persistently infected dHepaRG cells: genotype D. Differentiated HepaRG were infected with HBV genotype D at a MOI of 100 vge/cell or HDV genotype 1 at a MOI of 10 vge/cell for 7 days before being treated trice every 2-3 days with indicated molecules at a concentration of 10 microM. A) Total DNA and RNA were extracted from cells and subjected to qPCR and RTqPCR to detect HBV cccDNA, total HBV RNA or pregenomic HBV RNA. B) HBs and HBe secreted antigens in supernatant were quantified by ELISA, whereas HBV DNA contained in virions was quantified by qPCR after viral nucleic acid extraction from supernatant. C) Intracellular HDV RNA was quantified by RTqPCR after total RNA extraction from cells. D) Viability was monitored in 1C8-treated (or control treated; puromycin is a positive toxic molecule) cells by CellTiter-Glo® luminescent cell viability assay. Results are the mean+SEM of n=3 performed with 3 different differentiations of HepaRG. Statistics were done by two-tailed Mann-Whitney test, with following significativity: *P<0.05, **P<0.01, ***P<0.001, ****P<0.0001. nd=not determined
Human liver progenitor HepaRG cells were cultured in Williams medium (ThermoFisher) supplemented with 10% of FBS (Perbio), Penicillin/Streptomycin (500 U/mL), glutamine (2 mM), hydrocortisone Upjohn (2.5 mg/L; Serb laboratory), insulin (5 mg/L; Sigma Aldrich). For the differentiation process 2% of DMSO was added to the above-described supplemented Williams medium. […] The multiplicity of infection (MOI; expressed as virus genome equivalent/cell) is indicated in the figure legends, but was of 100 vge/cell if not precised.
From cell culture supernatants, secreted HBe and HBs antigens were quantified by ELISA, using a chemiluminescence immunoassay kit (Autobio, China) following manufacturer's instructions. […]
A HBV standard was used for quantification of extracellular viral DNA and RNA. […]

HDV genotype 1 = experiment: Establishment of HDV infection in dHepaRG (treatment 24 h before and during inoculation); format: cell-based, hepatitis delta virus; settings: 1C8 10 microM, Entry Inh. 100 nM
Method: as §1
FIG. 7. Effect of 1C8 on de novo establishment of ccDNA in dHepaRG (genotype D). […] B) HBs and HBe secreted antigens in supernatant were quantiUied by ELISA, whereas HBV DNA contained in virions was quantified by qPCR after viral nucleic acid extraction from supernatant. […] Statistics were done by two-tailed Mann-Whitney test, with following signiUicativity: *P<0.05, **P<0.01, ***P<0.001, ****P<0.0001. nd=not determined.

[1] = biological target: serine/arginine-rich splicing factor 10 (SRSF10) (human) (UniProt O75494); experiment: Strep-Tactin affinity purification of StrepTag-HBc complexes from hepatocyte nuclei, LC-MS/MS
Chain of serine/arginine-rich splicing factor 10 (SRSF10) (human) (O75494 whole entry): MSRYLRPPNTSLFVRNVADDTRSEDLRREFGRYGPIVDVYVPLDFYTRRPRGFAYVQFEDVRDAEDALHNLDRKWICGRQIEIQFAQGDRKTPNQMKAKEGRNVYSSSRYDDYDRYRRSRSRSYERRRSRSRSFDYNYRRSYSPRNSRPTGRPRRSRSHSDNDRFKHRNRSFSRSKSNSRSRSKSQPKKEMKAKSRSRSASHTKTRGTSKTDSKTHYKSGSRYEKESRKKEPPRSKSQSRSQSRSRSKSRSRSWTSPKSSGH

Chain of StrepTag-HBc (core/capsid protein of HBV with a StrepTag at the N terminus) (P03146 whole entry): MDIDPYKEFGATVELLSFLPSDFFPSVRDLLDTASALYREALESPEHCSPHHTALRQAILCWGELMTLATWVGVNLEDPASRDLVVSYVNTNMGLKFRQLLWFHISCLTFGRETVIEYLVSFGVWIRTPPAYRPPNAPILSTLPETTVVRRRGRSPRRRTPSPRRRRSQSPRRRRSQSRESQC

`C[C@H](Cn1cnc2c(N)ncnc21)OCP(=O)(O)O` [tenofovir, reference compound] was tested, and the “impact on accumulation of intracellular HBV RNA” value (HBV genotype D) was “not capable to impact”.

In the case of “Entry Inh.: PreS1 peptide, aa 2 to 48 of HBV PreS1 (SEQ ID No 1), N-terminal myristoyl, used for inhibiting HBV entry [reference compound]”, the “block of the establishment of HDV infections” value (HDV genotype 1) is reported as “inhibited”.

With “StrepTag-HBc (core/capsid protein of HBV with a StrepTag at the N terminus)” the enrichment in HBc complexes [1] was 3000 times.
